Consider three molecules from publication PMC2974656, “Selective killing of human immunodeficiency virus infected cells by non-nucleoside reverse transcriptase inhibitor-induced activation of HIV protease” (Retrovirology, 2010).

Like-named read-outs stand apart in the source and are kept apart here. Some results are limits rather than exact numbers.

In data set [1] the test system is HIV-1IIIB. In words: Direct antiviral activity: MT4-LTR-EGFP cells infected with HIV-1IIIB, EGFP fluorescence. The format is cell-based. The conditions noted are these: read-out: Inhibition of HIV replication in vitro EC50. On the procedure:
After 3 days of incubation, infected cells were quantified by determination of total EGFP fluorescence per well based on microscopy and subsequent image analysis. Threshold values were determined from the average pixel value plus 6 standard deviations from the uninfected control wells, and the median threshold from all control wells on a plate was defined as baseline GFP expression. Intensity values for the sample wells were then determined by subtracting the background threshold from each pixel value obtained from the image of the respective well and calculating the sum of net pixel intensities. Percent inhibition was calculated as 100 * (1 - (Sample - CC)/(VC - CC)).

In data set [2] the test system is intracellular Gag processing by HIV PR. Format: cell-based, HIV-1. On the procedure:
In previous studies, high concentrations of NNRTI (5 μM) were required to observe NNRTI mediated activation of intracellular HIV PR activity. […]. Towards this end, we developed a biochemical assay for gel independent quantitation of intracellular Gag processing by HIV PR in the context of a virus producing cell. We had previously shown that additional protein domains, consisting of small epitope tags or even the 27 kDa green fluorescent protein (EGFP), can be inserted between the MA and CA domains of the Gag and Gag-Pol polyproteins without affecting polyprotein production or processing by HIV PR [36]. Based on this, we designed a HIV reporter construct which contained a small N-terminal fragment ('alpha peptide') of Escherichia coli beta-galactosidase (β-Gal), flanked by two HIV PR recognition sites, between the MA and CA coding sequences of Gag (Figure 1A). […] This so called alpha complementation principle can be exploited for use in mammalian cells and has been employed for the establishment of various cell based biochemical assay systems. We reasoned that embedding of the small alpha peptide within the multi-domain polyproteins Gag or Gag-Pol, respectively, should impair its productive association with the omega subunit, while proteolytic release of the alpha peptide from the polyprotein by PR would allow the formation of enzymatically active β-Gal. This should allow us to monitor intracellular Gag and Gag-Pol processing through increased β-Gal activity.
Reconstituted β-Gal activity in cell lysates was measured by cleavage of the chromogenic substrate CPRG [42] as described in Methods.
The activity of β-Gal in cell lysates from transfected 293T cells was measured by enzymatic cleavage of the chromogenic β-Gal substrate chlorphenolred-β-D-galactopyranoside (CPRG, Roche; [42]). At 44 h post transfection, cells were briefly rinsed with PBS and suspended in reporter gene assay lysis buffer (Roche, 600 μl per 6-well dish) supplemented with a protease inhibitor mix (Roche). Cell suspensions were incubated for 10 min at room temperature and cell debris was subsequently removed by brief centrifugation. Five μl of supernatant were diluted in 96-well plates with 95 μl CPRG reaction buffer (50 mM potassium phosphate, pH 7.5, 1 mM MgCl2) and pre-warmed for 5 min to 37°C. 100 μl of pre-warmed reaction mix (100 μM CPRG in CPRG reaction buffer supplemented with protease inhibitor cocktail and 40 μM β-mercaptoethanol) were added and β-Gal mediated cleavage of CPRG was monitored by recording absorption at 592 nm every 2 min for 20 min at 37°C using a TECAN Safire multi-well reader. OD592 values were plotted over time and relative reaction rates (OD592/min) were determined from the initial linear velocities.

For data set [3], the system named is MT4-CMV-EGFP control cells. In words: Cytotoxicity on uninfected control cells, EGFP fluorescence per well. Format: cell-based. On the procedure: (§1) The cytotoxicity of inhibitors was determined in parallel on MT4-CMV-EGFP control cells and on MT4-LTR-EGFP-IIIB virus producing cells, respectively.
For data set [4], the system named is MT4-LTR-EGFP-IIIB HIV-1 producing cells. As to the kind of experiment: in vitro. The format is cell-based. The conditions noted are these: for CC50: 4 days; for Cytotoxicity on MT4-LTR-EGFP-IIIB cells, in words: summary of Table 1. On the procedure: as §1
Data set [5] concerns the target T1, RT heterodimer (p66/p51) (Human immunodeficiency virus type 1 group M subtype B, UniProt P04585).
T1 construct: the bait protein (p66) was fused to the C-terminus of a chimeric receptor; expressed in transfected cells; host or cells: mammalian cells
As to the kind of experiment: cell-based. The format is cell-based, HIV-1. An excerpt: RT heterodimer formation was monitored using a mammalian two hybrid system described previously. In brief, the bait protein (p66) was fused to the C-terminus of a chimeric receptor consisting of the extracellular part of the erythropoietin receptor and the intracellular part of the leptin receptor incapable of STAT activation. The prey protein (p51) was coupled to a part of the cytoplasmic tail of the gp130 chain carrying several STAT3 recruitment domains. Interaction of bait and prey protein leads to functional complementation of STAT3 activity, which results in Epo dependent induction of a STAT3-responsive luciferase reporter gene. Enhancement of this interaction by the addition of compounds can thus be measured by an increase of luciferase expression.

Data set [6] relates to Gag processing in MT-4-IIIB cells. As to the kind of experiment: Immunoblot of Gag processing in chronically infected MT-4 cells. The format is cell-based, HIV-1. The conditions noted are these: 1 μM, day 2 post addition. (Immunoblotting shows a protein as a band on a membrane.)
In data set [7] the test system is HIV-1AGFP infected PBMC. As to the kind of experiment: Killing of HIV-1 infected PBMC, proportion of GFP expressing cells by flow cytometry. The conditions noted are these: 1 μM NNRTI, added day 2 post infection with AMD-3100, 5 days. Format: cell-based, human. Background: A flow cytometer gives signals particle by particle.
Experimental: PBMC isolated from healthy blood donors were activated and infected with a replication competent HIV-1 derivative which carries a gfp gene in the nef locus [49]. The co-receptor antagonist AMD-3100 was added at day 2 post infection to prevent further viral spread.
In data set [8] the test system is HXB2D-EGFP infected CD4 positive cells isolated from PBMC. As to the kind of experiment: Killing of HIV-1 infected CD4 positive primary T-cells, flow cytometry. The conditions noted are these: 1 μM NNRTI + 1 μM AZT, 3 days. Format: cell-based, human. On the procedure: To validate our results obtained for the persistently infected cell line in a more relevant cell system we performed additional infection experiments using human peripheral blood mononuclear cells (PBMC). […]. PBMC isolated from healthy blood donors were activated and infected with a replication competent HIV-1 derivative which carries a gfp gene in the nef locus. The co-receptor antagonist AMD-3100 was added at day 2 post infection to prevent further viral spread. This was done to distinguish the proposed killing of infected cells from the inhibitory effect of NNRTIs and PIs on virus replication. […]. […] Similar results were obtained upon infection of CD4-positive primary T-cells with an EGFP-expressing virus (Figure 4B).
Figure 4 NNRTI induced selective killing of HIV-1 infected primary human cells. (A) PBMC prepared from buffy coats of healthy blood donors were infected with HIV-1AGFP. At day 2 post infection, 100 ng/ml AMD-3100 was added to all samples to prevent further infection. […] After further incubation for 5 days, cells were harvested and analyzed for the proportion of infected GFP expressing cells by flow cytometry. […] P-values were calculated using a two-tailed unpaired t-test (GraphPad Prism). Values were normalized to the respective solvent control. (B) CD4 positive cells isolated from PBMC were infected with HXB2D-EGFP. […] After further incubation for 3 days, cells were harvested and analyzed for the proportion of infected cells by flow cytometry. […] Asterisks: non-infected controls.
Peripheral blood mononuclear cells (PBMC) were purified from buffy coats of HIV-negative blood donors, grown in supplemented RPMI 1640 and stimulated by the addition of 10 ng/ml IL-2 (Biomol) and 2 μg/ml PHA (Sigma). PBMC pooled from two donors each were used for infection. […] For infection of PBMC, the HIV-1 derivatives HIV-1-AGFP [49] carrying the gfp gene fused to the codon for amino acid 16 of Nef in pNL4-3, or HXB2D-EGFP [60], which carries an egfp gene in the place of the viral nef open reading frame, were used as indicated. […]

The test system of data set [9] is Gag processing by HIV PR. In words: Immunoblot analysis of Gag processing in transfected 293T cells. The format is cell-based, HIV-1. The conditions noted are these: 2 μM LPV. Here is the method: 293T cells were seeded in 6-well plates and transfected with the indicated constructs using FuGene6 (Roche) according to the manufacturer's instructions. Cell lysates and tissue culture supernatants were harvested at 44-48 h post transfection. Virus was purified by ultracentrifugation through a 20% (w/w) sucrose cushion. Cell lysates, tissue culture supernatants or pelleted viral particles were separated by SDS-PAGE (17.5% acrylamide; acrylamide:bisacrylamide 200:1). Proteins were transferred to nitrocellulose by semi-dry blotting and detected using polyclonal antisera raised against recombinant HIV-1 CA or MA, or a commercial antiserum against β-Gal (Abcam, ab616), respectively.

The subject of data set [10] is intracellular Gag processing by HIV PR. The format is cell-based, HIV-1. The conditions noted are these: 2 μM LPV, 48 h post transfection; DMSO control 0.109 min^-1.
Data set [11] is described as follows: Cytotoxicity on uninfected control cells, EGFP fluorescence per well. The format is cell-based. The conditions noted are these: human, MT4-CMV-EGFP control cells (uninfected); 4 days; mean ± SD; tested up to 10 μM; read-out: Cytotoxicity on MT4-CMV-EGFP control cells CC50. Here is the method:
as §1

Data set [12] is described as follows: in vitro. Format: cell-based. The conditions noted are these: human, 4 days. On the procedure: as §1
On the set-up of data set [13]: method as in PMID 12545140. The conditions noted are these: under therapy; cited from earlier work.
Where [14] appears, read: 293T cells, 44 h post transfection.
Setting [15] is: no DRV, mean ± SD, tested up to 10 μM, read-out: Cytotoxicity on MT4-LTR-EGFP-IIIB HIV-1 producing cells CC50.

As a reminder, the CC50 is the concentration giving 50% cytotoxicity. Take `Cc1cc(S(N)(=O)=O)ccc1NC(=O)COc1ccc(Cl)cc1C(=O)c1cc(Cl)cc(C#N)c1` [GW-678248]: the EC50 in data set [1] (MT4-LTR-EGFP cells, HIV-1IIIB MOI 0.01, 3 days, mean ± SD of three or more measurements) was found to be 0.84 ± 0.25 nM; in data set [5] (concentration enhancing luciferase signal by 50% over control, read-out: Enhancement of RT-Dimerization EC50) it was 3.2 nM. Also, the “Concentration showing strong β-Gal activity enhancement” value in data set [2] (setting [14]) is reported as ~ 250 nM. The CC50 in [3] is more than 10000 nM; in data set [4] (setting [15]) it was 630 ± 290 nM; in [4] (read-out: CC50 on virus producing cells in the absence of DRV, one representative experiment (Fig. 3C), 4 parameter fit), 350 nM. Further, in data set [4], the “Cytotoxicity on MT4-LTR-EGFP-IIIB cells, in words” value is recorded as “submicromolar range”. Moreover, the “Promotion of RT dimerization, in words” value in data set [5] (summary of Table 1) is recorded as “low nM range”. In addition, in data set [6], the “NNRTI mediated enhancement of Gag processing in virus producing cells” value was “decreased ratio of Gag to intermediate and fully mature processing products”. The “Infected primary cells (PBMC) as compared with the control” value in data set [7] is given as “significant reduction”. In data set [8], the “Cytotoxicity on infected CD4-positive primary T-cells” value is “PR dependent cytotoxicity”.
With `Cc1cccc(C)c1OCC(=O)N[C@@H](Cc1ccccc1)[C@@H](O)C[C@H](Cc1ccccc1)NC(=O)[C@H](C(C)C)N1CCCNC1=O` [LPV, lopinavir], in [2] (2 μM LPV, result in words), the “β-Gal activity in the cell lysates” value is “reduced, but did not abolish”. Moreover, the “Gagα processing as determined by immunoblot” value in data set [9] is “nearly completely blocked”. The “Relative rate of CPRG cleavage” value in data set [10] was 0.054 min⁻¹.
On to `O=C1Nc2ccc(Cl)cc2[C@@](C#CC2CC2)(C(F)(F)F)O1` [EFV, efavirenz], for which, in data set [1] (Human immunodeficiency virus 1, 72 h), the EC50 worked out at 1.9 ± 0.9 nM. In addition, the “Gag processing or β-Gal activity, pCHIV.MAα variant with D25A mutation (PR-)” value in data set [2] (5 μM EFV) is reported as “no increase”. Further, the “β-Gal activity, pCHIV.MAα 2PR (linked PR dimer)” value in [2] (5 μM EFV) is “No effect”. Further, the “β-Gal activity, pCHIV.MAα” value in [2] (5 μM EFV, equal amounts of pCHIV.MAα and pCMVω) is “significant increase”. For the same molecule, the “Concentration required to achieve the maximal effect on β-Gal activity” value in [2] (setting [14]) is recorded as ~ 1 μM. The CC50 at 4 days in [11] is more than 10000 nM; in data set [12] (setting [15]) it was 1710 ± 430 nM; in [12] (CC50 on virus producing cells in the absence of DRV, one representative experiment (Fig. 3C), 4 parameter fit) it was 2440 nM. Also, in data set [4], the “Cytotoxicity on MT4-LTR-EGFP-IIIB cells, in words” value is given as “less cytotoxic”. In addition, in data set [13], the Peak serum levels result is listed as “micromolar range”.
